Laboratory results from patent US20260201008A1, “SECRETIN-DERIVED GLP1R SELECTIVE AGONISTS” (GUBRA A/S, priority 2023, published 2026).
Like-named read-outs stand apart in the source and are kept apart here. Numbered stars: 1 amine (or outer) side, 2 acyl side, 3 side chain; on linkers, the order of the positions; unused ones are H or OH. Square brackets hold non-standard residues; d marks the D form. Side chains are listed from the residue outwards. Peptide text beside a SMILES is read from it. * marks the point of attachment. C20 diacid = O=C(O)CCCCCCCCCCCCCCCCCCC(=O)*; γGlu = O=C(O)[C@H](CCC(=O)[*:2])N[*:1]; AEEA = NCCOCCOCC(=O)O; Aib = CC(C)(N)C(=O)O

Key:
[1] = Turbidity of crude library peptides (absorbance at 600 nm); assay type: physicochemical; conditions: Physical stability of peptides
Procedure, shortened: (§1)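 Values reflect mean ThT emission (ex 450, em 480 nm) over 72 h at 40° C, read every 10 min after 5 min shaking at 700 rpm, plus a single initial absorbance at 600 nm for turbidity. Peptides were at 267 μM, pH 4.0 acetate or pH 7.0 phosphate (50 mM), with 4 μM ThT.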

[2] = Fibril formation of crude library peptides (Thioflavin T); assay type: physicochemical; set-up: key: average ThT fluorescence emission at 480 nm (ex 450 nm), raw units; conditions: Physical stability of peptides
Procedure, shortened: as §1

GLP1R = GLP1R (Homo sapiens, UniProt P43220); assay: hGLP1R potency, cAMP accumulation in CHO-K1 cells stably overexpressing hGLP1R; assay type: cell-based; set-up: host or cells: CHO-K1; conditions: for EC50: cAMP accumulation, CHO-K1 cells overexpressing hGLP1R; for SCTR EC50/GLP1R EC50 ratio: selectivity for hGLP1R over hSCTR, cAMP accumulation in CHO-K1 cells
Procedure, shortened: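 Cells were plated in DPBS with 0.05% casein and 0.5 mM IBMX, then stimulated for 30 min at room temperature with test compound. cAMP was read by TR-FRET after one hour. EC50 came from variable-slope sigmoid nonlinear regression; purified peptides ran as 11-point 3-fold series, n=2.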

SCTR = SCTR (Homo sapiens, UniProt P47872); assay: hSCTR potency, cAMP accumulation in CHO-K1 cells stably overexpressing hSCTR; assay type: cell-based; set-up: alternatively Euroscreen ES-712-AF; FAST-0161L; host or cells: CHO-K1; conditions: cAMP accumulation, CHO-K1 cells overexpressing hSCTR
Procedure, shortened: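 Division-arrested CHO-K1 cells stably expressing hSCTR were plated in DPBS with 0.05% casein and 0.5 mM IBMX, then stimulated with test peptide for 30 min at room temperature. cAMP was read by HTRF after one hour. EC50 came from variable-slope sigmoidal nonlinear regression.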

[3] = read-out: hGLP1R pEC50 (converted)
[4] = read-out: hSCTR pEC50 (converted)

Chain of GLP1R (P43220 24-463): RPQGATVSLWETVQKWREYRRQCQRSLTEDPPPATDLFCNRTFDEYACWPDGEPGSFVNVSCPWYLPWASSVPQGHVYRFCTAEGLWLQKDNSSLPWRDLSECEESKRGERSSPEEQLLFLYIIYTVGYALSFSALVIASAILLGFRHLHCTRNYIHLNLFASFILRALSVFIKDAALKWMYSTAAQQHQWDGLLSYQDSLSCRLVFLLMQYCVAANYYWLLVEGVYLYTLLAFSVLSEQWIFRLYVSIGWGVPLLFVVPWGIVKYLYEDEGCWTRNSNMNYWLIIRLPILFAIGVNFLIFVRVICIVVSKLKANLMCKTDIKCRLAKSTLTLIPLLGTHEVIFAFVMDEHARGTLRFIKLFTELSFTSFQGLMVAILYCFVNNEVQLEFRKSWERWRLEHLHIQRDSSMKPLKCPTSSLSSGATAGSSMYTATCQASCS
Chain of SCTR (P47872 23-440): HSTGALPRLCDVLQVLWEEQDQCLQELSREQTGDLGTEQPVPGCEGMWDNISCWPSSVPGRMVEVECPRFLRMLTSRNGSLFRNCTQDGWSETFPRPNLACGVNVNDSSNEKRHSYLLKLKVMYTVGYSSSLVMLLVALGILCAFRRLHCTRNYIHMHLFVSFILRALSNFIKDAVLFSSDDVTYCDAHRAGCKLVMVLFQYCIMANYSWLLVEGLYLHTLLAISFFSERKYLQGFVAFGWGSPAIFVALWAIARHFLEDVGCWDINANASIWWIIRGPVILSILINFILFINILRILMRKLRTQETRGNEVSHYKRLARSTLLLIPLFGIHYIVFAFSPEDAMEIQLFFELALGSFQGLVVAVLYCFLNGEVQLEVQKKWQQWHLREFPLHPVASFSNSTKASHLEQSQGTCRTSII

Turbidity (pH 7) [1] | Fibril formation [2] | EC50 (GLP1R; [3]) [nM] | SCTR EC50/GLP1R EC50 ratio (GLP1R) | EC50 (SCTR; [4]) [nM] | Selectivity (GLP1R; SCTR EC50/GLP1R EC50 ratio) | EC50 (GLP1R; read-out: pEC50 hGLPR1 (converted)) [nM] | EC50 (SCTR; read-out: pEC50 hSCTR (converted)) [nM] | SMILES
0.15 | 3284 | 0.158 | 6863 | 1000 | – | – | – | CC[C@H](C)[C@H](NC(=O)[C@H](Cc1ccccc1)NC(=O)[C@H](CCCNC(=N)N)NC(=O)[C@H](CCC(N)=O)NC(=O)[C@H](CC(C)C)NC(=O)[C@H](C)NC(=O)[C@H](C)NC(=O)CNC(=O)[C@H](CCC(=O)O)NC(=O)[C@H](CC(C)C)NC(=O)[C@H](CC(C)C)NC(=O)C(C)(C)NC(=O)[C@H](CO)NC(=O)C(C)(C)NC(=O)[C@H](CC(=O)O)NC(=O)[C@H](CO)NC(=O)[C@@H](NC(=O)[C@H](Cc1ccccc1)NC(=O)[C@@H](NC(=O)CNC(=O)[C@H](CCC(=O)O)NC(=O)C(C)(C)NC(=O)[C@@H](N)Cc1c[nH]cn1)[C@@H](C)O)[C@@H](C)O)C(=O)N[C@@H](CCC(N)=O)C(=O)N[C@@H](Cc1c[nH]c2ccccc12)C(=O)N[C@@H](CC(C)C)C(=O)N[C@H](C(N)=O)C(C)C [compound 107] (H-H[Aib]EGTFTSD[Aib]S[Aib]LLEGAALQRFIQWLV-NH2)
0.08 | 6284 | 0.01 | 8851 | 79.4 | – | – | – | CC(C)C[C@H](NC(=O)[C@H](Cc1ccccc1)NC(=O)[C@H](CCCNC(=N)N)NC(=O)[C@H](CCC(N)=O)NC(=O)[C@@H](NC(=O)[C@H](C)NC(=O)[C@H](C)NC(=O)[C@H](CCC(=O)O)NC(=O)[C@H](CCC(=O)O)NC(=O)[C@H](CCCCNC(=O)COCCOCCNC(=O)COCCOCCNC(=O)CC[C@H](NC(=O)CCCCCCCCCCCCCCCCCCC(=O)O)C(=O)O)NC(=O)[C@H](CC(C)C)NC(=O)[C@@H](NC(=O)[C@H](CO)NC(=O)[C@@H](NC(=O)[C@H](CC(=O)O)NC(=O)[C@H](CO)NC(=O)[C@@H](NC(=O)[C@H](Cc1ccccc1)NC(=O)[C@@H](NC(=O)CNC(=O)[C@H](CCC(=O)O)NC(=O)C(C)(C)NC(=O)[C@@H](N)Cc1c[nH]cn1)[C@@H](C)O)[C@@H](C)O)C(C)C)[C@@H](C)O)[C@@H](C)O)C(=O)N[C@@H](CCC(=O)O)C(=O)N[C@@H](Cc1c[nH]cn1)C(=O)N[C@@H](CC(C)C)C(=O)N[C@H](C(N)=O)C(C)C [compound 102] (H-H[Aib]EGTFTSDVSTLK([AEEA-AEEA-γGlu-C20 diacid])EEAATQRFLEHLV-NH2)
0.09 | 4019 | 0.00794 | 9970 | 79.4 | – | – | – | CC(C)C[C@H](NC(=O)[C@H](C)NC(=O)[C@H](C)NC(=O)[C@H](CCC(=O)O)NC(=O)[C@H](CCC(=O)O)NC(=O)[C@H](CCCCNC(=O)COCCOCCNC(=O)COCCOCCNC(=O)CC[C@H](NC(=O)CCCCCCCCCCCCCCCCCCC(=O)O)C(=O)O)NC(=O)[C@H](CC(C)C)NC(=O)[C@H](Cc1ccc(O)cc1)NC(=O)[C@H](CO)NC(=O)[C@@H](NC(=O)[C@H](CC(=O)O)NC(=O)[C@H](CO)NC(=O)[C@@H](NC(=O)[C@H](Cc1ccccc1)NC(=O)[C@@H](NC(=O)CNC(=O)[C@H](CCC(=O)O)NC(=O)C(C)(C)NC(=O)[C@@H](N)Cc1c[nH]cn1)[C@@H](C)O)[C@@H](C)O)C(C)C)C(=O)N[C@@H](CCC(N)=O)C(=O)N[C@@H](CCCNC(=N)N)C(=O)N[C@@H](Cc1ccccc1)C(=O)N[C@@H](CC(C)C)C(=O)N[C@@H](CCC(=O)O)C(=O)N[C@@H](Cc1c[nH]cn1)C(=O)N[C@@H](CC(C)C)C(=O)N[C@H](C(N)=O)C(C)C [compound 137] (H-H[Aib]EGTFTSDVSYLK([AEEA-AEEA-γGlu-C20 diacid])EEAALQRFLEHLV-NH2)
0.08 | 3983 | 0.0126 | 3669 | 39.8 | – | – | – | CC(C)C[C@H](NC(=O)[C@H](Cc1ccccc1)NC(=O)[C@H](CCCNC(=N)N)NC(=O)[C@H](CCC(N)=O)NC(=O)[C@H](CC(C)C)NC(=O)C(C)(C)NC(=O)[C@H](C)NC(=O)[C@H](CCC(=O)O)NC(=O)[C@H](CCC(=O)O)NC(=O)[C@H](CCCCNC(=O)COCCOCCNC(=O)COCCOCCNC(=O)CC[C@H](NC(=O)CCCCCCCCCCCCCCCCCCC(=O)O)C(=O)O)NC(=O)[C@H](CC(C)C)NC(=O)C(C)(C)NC(=O)[C@H](CO)NC(=O)[C@@H](NC(=O)[C@H](CC(=O)O)NC(=O)[C@H](CO)NC(=O)[C@@H](NC(=O)[C@H](Cc1ccccc1)NC(=O)[C@@H](NC(=O)CNC(=O)[C@H](CCC(=O)O)NC(=O)C(C)(C)NC(=O)[C@@H](N)Cc1c[nH]cn1)[C@@H](C)O)[C@@H](C)O)C(C)C)C(=O)N[C@@H](CCC(=O)O)C(=O)N[C@@H](Cc1c[nH]cn1)C(=O)N[C@@H](CC(C)C)C(=O)N[C@H](C(N)=O)C(C)C [compound 163] (H-H[Aib]EGTFTSDVS[Aib]LK([AEEA-AEEA-γGlu-C20 diacid])EEA[Aib]LQRFLEHLV-NH2)
0.08 | 3560 | 6.31 | 804 | 5010 | – | – | – | CC[C@H](C)[C@H](NC(=O)[C@H](Cc1ccccc1)NC(=O)[C@H](CCCNC(=N)N)NC(=O)[C@H](CCC(N)=O)NC(=O)[C@H](CC(C)C)NC(=O)[C@H](C)NC(=O)[C@H](C)NC(=O)CNC(=O)[C@H](CCC(=O)O)NC(=O)[C@H](CC(C)C)NC(=O)[C@H](CC(C)C)NC(=O)[C@H](CCC(=O)O)NC(=O)[C@H](CO)NC(=O)[C@@H]1CCCN1C(=O)[C@H](CC(=O)O)NC(=O)[C@H](CO)NC(=O)[C@@H](NC(=O)[C@H](Cc1ccccc1)NC(=O)[C@@H](NC(=O)CNC(=O)[C@H](CCC(=O)O)NC(=O)C(C)(C)NC(=O)[C@@H](N)Cc1c[nH]cn1)[C@@H](C)O)[C@@H](C)O)C(=O)N[C@@H](CCC(N)=O)C(=O)N[C@@H](Cc1c[nH]c2ccccc12)C(=O)N[C@@H](CC(C)C)C(=O)N[C@H](C(N)=O)C(C)C [compound 122] (H-H[Aib]EGTFTSDPSELLEGAALQRFIQWLV-NH2)
0.09 | 7756 | – | – | – | 11020 | 0.0126 | 126 | CC(C)C[C@H](NC(=O)[C@H](Cc1ccccc1)NC(=O)[C@H](CCCNC(=N)N)NC(=O)[C@H](CCC(N)=O)NC(=O)[C@@H](NC(=O)[C@H](C)NC(=O)[C@H](C)NC(=O)[C@@H](NC(=O)[C@H](CCC(=O)O)NC(=O)[C@H](CCCCNC(=O)COCCOCCNC(=O)COCCOCCNC(=O)CC[C@H](NC(=O)CCCCCCCCCCCCCCCCCCC(=O)O)C(=O)O)NC(=O)[C@H](CC(C)C)NC(=O)[C@H](CCC(=O)O)NC(=O)[C@H](CO)NC(=O)[C@@H](NC(=O)[C@H](CC(=O)O)NC(=O)[C@H](CO)NC(=O)[C@@H](NC(=O)[C@H](Cc1ccccc1)NC(=O)[C@@H](NC(=O)CNC(=O)[C@H](CCC(=O)O)NC(=O)C(C)(C)NC(=O)[C@@H](N)Cc1c[nH]cn1)[C@@H](C)O)[C@@H](C)O)C(C)C)[C@@H](C)O)[C@@H](C)O)C(=O)N[C@@H](CCC(=O)O)C(=O)N[C@@H](Cc1c[nH]cn1)C(=O)N[C@@H](CC(C)C)C(=O)N[C@H](C(N)=O)C(C)C [compound 54] (H-H[Aib]EGTFTSDVSELK([AEEA-AEEA-γGlu-C20 diacid])ETAATQRFLEHLV-NH2)
0.09 | 4754 | 0.794 | 33562 | 25100 | – | – | – | CC(C)C[C@H](NC(=O)[C@H](Cc1ccccc1)NC(=O)[C@H](CCCNC(=N)N)NC(=O)[C@H](CCC(N)=O)NC(=O)[C@H](CC(C)C)NC(=O)C(C)(C)NC(=O)[C@H](C)NC(=O)[C@H](CCC(=O)O)NC(=O)[C@H](CCC(=O)O)NC(=O)[C@H](CCCCNC(=O)COCCOCCNC(=O)COCCOCCNC(=O)CC[C@H](NC(=O)CCCCCCCCCCCCCCCCCCC(=O)O)C(=O)O)NC(=O)[C@H](CC(C)C)NC(=O)[C@H](Cc1ccc(O)cc1)NC(=O)[C@H](CO)NC(=O)[C@@H](NC(=O)[C@H](CC(=O)O)NC(=O)[C@H](CO)NC(=O)[C@@H](NC(=O)[C@H](Cc1ccccc1)NC(=O)[C@@H](NC(=O)CNC(=O)[C@H](Cc1c[nH]c2ccccc12)NC(=O)C(C)(C)NC(=O)[C@@H](N)Cc1c[nH]cn1)[C@@H](C)O)[C@@H](C)O)C(C)C)C(=O)N[C@@H](CCC(=O)O)C(=O)N[C@@H](Cc1c[nH]cn1)C(=O)N[C@@H](CC(C)C)C(=O)N[C@H](C(N)=O)C(C)C [compound 160] (H-H[Aib]WGTFTSDVSYLK([AEEA-AEEA-γGlu-C20 diacid])EEA[Aib]LQRFLEHLV-NH2)
